Consider two compounds from US20230364051A1, “FORMULATIONS AND METHODS FOR IMPROVING AVIAN HEALTH” (CORNELL UNIVERSITY, priority 2022, published 2023).

Marks after values point to notes of the source that are not given here.

In experiment [1] the test system is BBM Fe-related proteins and intestinal bacterial populations. The note with it: in vivo; cited from earlier work.
Experiment [2] has as its system L. plantarum. Kind of experiment: Duodenal bacterial populations by PCR of 16S rDNA: L. plantarum. As to conditions: 5 wt. % inulin vs H2O injected control, p < 0.05; duodenum, day of hatch. The experiment is classed as in vivo, Gallus gallus. Here is the method:
(§1) Cornish-cross fertile broiler eggs (Gallus gallus, n = 39) were obtained from a commercial hatchery (Moyer’s chicks, Quakertown, PA, USA). The eggs were incubated under optimal conditions at the Cornell University Animal Science Poultry Farm Incubator [18]. All animal protocols were approved by Cornell University Institutional Animal Care and Use committee (IACUC #2020-0077). At day 17 of embryonic incubation, eggs containing viable embryos were weighed and divided into 5 groups, with all treatment groups assigned eggs of similar weight frequency distribution. Each group was then injected with the specific solution (1 mL per egg) with a 21-gauge needle into the amniotic fluid. Treatments in powder form were separately diluted in DI H2O. Two treatment groups (1.25, 2.5 wt. %), two controls (H2O and non-injected), and a positive control (5 wt. % inulin) were administered. After injection, the injection holes were sealed with cellophane tape and the eggs were placed in hatching baskets such that each treatment was equally represented at each incubator location. […]
(§2) Primers for Lactobacillus, Bifidobacterium, L. Plantarum, Clostridium, and E. coli were designed according to previously published data. […] PCR products were separated by electrophoresis on 2 wt. % agarose gel, stained with ethidium bromide, and quantified using the Quantity One 1-D analysis software (BioRad, Hercules, CA, USA).

The nature of experiment [3]: Blood hemoglobin (QuantiChrom Hemoglobin Assay) at hatch after intraamniotic administration. As to conditions: 5 wt. % inulin intraamniotic, day 17; blood at hatch. In kind it is in vivo, Gallus gallus. The method, then: (§3) Cornish-cross fertile broiler eggs (Gallus gallus, n = 39) were obtained from a commercial hatchery (Moyer’s chicks, Quakertown, PA, USA). The eggs were incubated under optimal conditions at the Cornell University Animal Science Poultry Farm Incubator [18]. […] Each group was then injected with the specific solution (1 mL per egg) with a 21-gauge needle into the amniotic fluid. Treatments in powder form were separately diluted in DI H2O. […] After injection, the injection holes were sealed with cellophane tape and the eggs were placed in hatching baskets such that each treatment was equally represented at each incubator location. Immediately upon hatch (day 21), blood was taken for hemoglobin determination and all chicks were then euthanized by CO2 exposure. The small intestine, pectoral muscle, cecum, and liver were collected, immediately frozen in liquid nitrogen, and then stored in a -80° C. freezer until analysis.
Blood was collected using micro-hematocrit heparinized capillary tubes (Fisher Scientific, Waltham, MA, USA). Blood Hb concentrations were determined spectrophotometrically using the QuantiChromTM Hemoglobin Assay (DIHB-250, BioAssay Systems, Hayward, CA, USA) following the kit manufacturer’s instructions.

Experiment [4] is described as follows: Body weight and cecum weight at hatch after intraamniotic administration. The experiment is classed as in vivo, Gallus gallus. Here is the method: (§4) Cornish-cross fertile broiler eggs (Gallus gallus, n = 39) were obtained from a commercial hatchery (Moyer’s chicks, Quakertown, PA, USA). The eggs were incubated under optimal conditions at the Cornell University Animal Science Poultry Farm Incubator [18]. All animal protocols were approved by Cornell University Institutional Animal Care and Use committee (IACUC #2020-0077). At day 17 of embryonic incubation, eggs containing viable embryos were weighed and divided into 5 groups, with all treatment groups assigned eggs of similar weight frequency distribution. Each group was then injected with the specific solution (1 mL per egg) with a 21-gauge needle into the amniotic fluid. Treatments in powder form were separately diluted in DI H2O. Two treatment groups (1.25, 2.5 wt. %), two controls (H2O and non-injected), and a positive control (5 wt. % inulin) were administered. After injection, the injection holes were sealed with cellophane tape and the eggs were placed in hatching baskets such that each treatment was equally represented at each incubator location. Immediately upon hatch (day 21), blood was taken for hemoglobin determination and all chicks were then euthanized by CO2 exposure. The small intestine, pectoral muscle, cecum, and liver were collected, immediately frozen in liquid nitrogen, and then stored in a -80° C. freezer until analysis.

Experiment [5] has as its system Clostridium spp. In words: Duodenal bacterial populations by PCR of 16S rDNA: Clostridium. The experiment is classed as in vivo, Gallus gallus. As to conditions: 5 wt. % inulin vs no injection and H2O injection controls, p < 0.05; duodenum, day of hatch. Here is the method:
as §1, §2

A short description of experiment [6]: Pectoral muscle glycogen analysis after intraamniotic administration. In kind it is in vivo, Gallus gallus. As to conditions: 5 wt. % inulin intraamniotic, day 17; pectoral muscle at hatch. Here is the method: as §4
Glycogen analysis was obtained from pectoralis muscle as previously described. Briefly, the frozen pectoral muscle samples were homogenized in 8 wt. % perchloric acid. Samples were then centrifuged at 12,000 × g for 15 minutes. The supernatant was removed, and 1.0 mL of petroleum ether was added to each tube. After mixing, the petroleum ether fraction was removed and samples from the bottom layer were transferred to a 96-well plate containing 300 µL of color reagent. All samples were read at a wavelength of 450 nm in an ELISA reader and the amount of glycogen was calculated according to a standard curve. The amount of glycogen present in pectoral sample was determined by multiplying the weight of the tissue by the amount of glycogen per 1 g of wet tissue.

The subject of experiment [7] is duodenum. Kind of experiment: Duodenal tissue morphology examination (villi, crypts, goblet cells, Paneth cells). In kind it is in vivo, Gallus gallus. The note with it: 5 wt. % inulin intraamniotic, day 17; duodenum at hatch. The method, then:
as §3
Intestinal morphology examination was performed as was previously described. Duodenum samples were fixed in fresh 4 wt. % (v/v) buffered formaldehyde, dehydrated, cleared, and embedded in paraffin. Serial sections were cut at 5 µm and placed on glass slides. Intestinal sections were deparaffinized in xylene, rehydrated in a graded alcohol series, stained with Alcian Blue/Periodic acid-Schiff, and examined by light microscopy. The following variables were measured in the intestine: villus height, villus width, crypt depth, Paneth cell number per crypt, Paneth cell width, goblet cell number, goblet cell diameter, types of goblet cells in the villi epithelium, and types of goblet cells within the crypts. Measurements in each segment were performed with a light microscope using CellSens Standard software (Olympus, Waltham, MA, USA).

Where [8] appears, read: 5 wt. % inulin intraamniotic, day 17, at hatch.

For `O=c1c(-c2ccc(O)cc2)coc2cc(O)ccc12` [daidzein], the “Expression of BBM Fe-related proteins and intestinal bacterial populations” value in experiment [1] is recorded as “affected”.
With inulin [reference compound], the “Relative abundance of L. plantarum” value in experiment [2] is given as “significantly increased”. The “Average Hb” value in experiment [3] was 9.56 ± 0.92 ^c g/dL. Besides, in experiment [4] (setting [8]), the “Average Body Weight” value is 46.04 ± 1.18 ^ab g and the “Average Cecum Weight” value was 0.43 ± 0.05 ^b g. Further, in experiment [4] (5 wt. % inulin, p < 0.05), the “Cecum weight of no injection and H2O groups compared to treated group” value is listed as “significantly greater values”. In experiment [5], the “Relative abundance of Clostridium spp.” value was “significantly increased”. Further, the “Average Glycogen” value in experiment [6] is given as 0.002 ± 0.001 ^b mg/g. For the same compound, in experiment [7], the “# Crypt Paneth Cells” value is 2.56 ± 0.09 ^c, the “Crypt Depth” value is 35.00 ± 0.43 ^b µm, the “Crypt Goblet Cell Diameter” value is recorded as 2.51 ± 0.02 ^c µm and the “Crypt Goblet Cell Number Acidic” value is given as 7.97 ± 0.16 ^b Unit. In experiment [7], the “Crypt Goblet Cell Number Mixture” value is recorded as 1.19 ± 0.08 ^c Unit, the “Crypt Goblet Cell Number Neutral” value is given as 0.00 ± 0.00 ^a Unit, the “Crypt Goblet Cell Number Total” value is listed as 9.15 ± 0.16 ^b Unit and the “Crypt Paneth cell Diameter” value is reported as 1.68 ± 0.03 ^b µm. Further, in experiment [7], the “Villi Goblet Cell Diameter” value was 2.74 ± 0.03 ^e µm, the “Villi Goblet Cell Number Acidic” value is 16.39 ± 0.54 ^c Unit, the “Villi Goblet Cell Number Mixture” value is recorded as 6.53 ± 0.30 ^a Unit and the “Villi Goblet Cell Number Neutral” value was 0.10 ± 0.02 ^b Unit. Besides, in experiment [7], the “Villi Goblet Cell Number Total” value was 23.02 ± 0.60 ^b Unit, the “Villus Height” value is on record as 246.64 ± 5.14 ^a µm, the “Villus Surface Area” value was 206.92 ± 6.37 ^a mm2 and the “Villus Width” value is given as 50.98 ± 1.03 ^a µm.
